Measurements as given in patent publication US20090048269A1 (AstraZeneca AB, priority 2007, published 2009).

Tests used:
human ALK5 [1] = biological target: T1, human ALK5 (Homo sapiens, UniProt P36897); test: ALK5 Enzyme Assay 2 (fluorescence polarisation probe displacement); type: binding; set-up: 6His tagged human ALK5 (residues162-503) was grown and purified from insect cells; 6His; made in house; host or cells: insect cells; settings: read-out: EAA2: activity (μM) using Enzyme Assay 2
T1 sequence (P36897 162-503): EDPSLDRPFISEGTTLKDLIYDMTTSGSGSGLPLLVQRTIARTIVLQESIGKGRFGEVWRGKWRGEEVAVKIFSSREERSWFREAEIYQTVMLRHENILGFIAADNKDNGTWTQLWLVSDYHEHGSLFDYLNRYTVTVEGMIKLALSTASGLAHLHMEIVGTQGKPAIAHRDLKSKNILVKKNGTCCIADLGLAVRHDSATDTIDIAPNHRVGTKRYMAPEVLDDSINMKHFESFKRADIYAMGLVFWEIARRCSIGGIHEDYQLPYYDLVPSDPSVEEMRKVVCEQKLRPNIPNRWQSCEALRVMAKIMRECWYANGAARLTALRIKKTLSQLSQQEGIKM
Summary of the method: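 Recombinant ALK5 (3 μg/mL) incubated with test compound in 50 mM HEPES pH7.4, 10 mM MgCl2, 1 mM DTT, 0.01% CHAPS. Displacement of a fluorescent quinazoline-based ALK5 probe (50 nM final) in presence of 1 μM ATP read by fluorescence polarisation.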

human ALK5 [2] = biological target: T1, human ALK5; test: ALK5 Enzyme Assay 1; type: biochemical; set-up: 6His tagged ALK5 protein (amino acids 162-503) expressed in insect cells; 6His; made in house; host or cells: insect cells; settings: read-out: EAA: activity (μM) using Enzyme Assay 1
Description: This assay measures the ability of a compound to bind to and inhibit the activity of ALK5 protein in vitro. […] Assay measurements were performed in assay buffer comprising 60 mM HEPES pH 7.4, 3 mM MgCl2, 3 mM MnCl2, 3 μM Na orthovanadate, 1.2 mM DTT and 0.05% PEG2000. […] Reactions were performed in the presence of 200 μg/mL casein (Sigma-Aldrich C4765-10ML), 200 ng/mL ALK5, 0.5 μM ATP (Sigma-Aldrich A7699), 1 μCi/mL γ-33P ATP. Following addition of casein, ATP and compound, reactions were initiated by adding ALK5 enzyme and reactions run for 90 minutes. After incubation reactions were terminated by addition of 20 μL per well of 50% orthophosphoric acid. 20 minutes after addition of 70% v/v TCA, precipitated protein was transferred to GF/C 96 well plates using a Tomtec harvester with 1.5% orthophosphoric acid. […] All reactions were performed under linear kinetics.

[3] = tested on: TGFβ1 mediated smad2 nuclear translocation; test: Cell Assay (Smad2 Redistribution Assay, MDA-MB-468 Smad2-EGFP cells); type: cell-based; settings: Homo sapiens, read-out: CAA: cell assay activity
Excerpt: Ligand mediated translocation of R-Smads (Smads 1,2,3,5,8) is a well-documented phenomenon in a variety of cell types. (Derynck, R. and Zhang, Y., 2003, Nature, 425, 577-584, Shi, Y. and Massague, J., 2003, Cell, 113, 685-700). Specifically TGFβ1 and TGFβ3 cause phosphorylation and nuclear translocation of Smad2 and Smad3 transcription factors. Thus compound inhibition of TGFβsignalling can be estimated by measuring cellular distribution of Smad2 or 3 under activated TGFβpathway. The Smad2 Redistribution™ Assay (Fisher BioImage ApS) was used to assess in vitro cellular activity of compounds of interest. The breast adenocarcinoma MDA-MB-468 parent cell line was used to create a recombinant cell line, MDA-MB-468 PS213 I GScl4C8 containing Smad2 fused to the C-terminus of enhanced green fluorescent protein (Smad2-EGFP). This enables monitoring of cellular distribution of Smad2 using high throughput fluorescence microscopy.
This assay measures the ability of compounds to inhibit TGFβ1 mediated smad2 nuclear translocation. Compounds dose ranges were created by diluting in 100% DMSO and then further into assay media (RPMI1640, 1% FCS, 10 mM HEPES pH 7.4). Cells were plated in 96 well Packard View plates at 8×10^3 per well in 100 μL RPMI1640, 10% FCS, 0.5 mg/mL geneticin and grown for 48 hrs. […] Plates were then read on an ArrayScan Vti instrument to determine nuclear to cytoplasmic staining. […]

[4] = IT6 (abbreviation not defined)

Row | IC50 (human ALK5 [1]) | IC50 (human ALK5 [2]) | IC50 [3] | SMILES | IT6 [4]
1 | 0.00804 µM | 0.00782 µM |  | COc1cc(Nc2cc(Oc3cccnc3-c3ccccc3)ccn2)cc(OC)c1OC [Example 49, 4-(2-Phenylpyridin-3-yl)oxy-N-(3,4,5-trimethoxyphenyl)pyridin-2-amine] | 
2 | 0.0308 µM | 0.126 µM |  | COc1cc(Nc2cc(Oc3cccnc3-c3ccccc3C#N)ccn2)cc(OC)c1OC [Example 50, 2-(3-{2-[(3,4,5-Trimethoxyphenyl)amino]pyridin-4-yl}-oxypyridin-2-yl)benzonitrile] | 
3 | 0.0274 µM | 0.23 µM |  | COc1cc(Nc2cc(Oc3cccnc3-c3ccc(NC(C)=O)cc3)ccn2)cc(OC)c1OC [Example 51, N-[4-(3-{2-[(3,4,5-Trimethoxyphenyl)amino]pyridin-4-yl}-oxypyridin-2-yl)phenyl]acetamide] | 
4 | 0.0329 µM | 0.0156 µM |  | COc1cc(Nc2cc(Oc3cccnc3-c3ccc(F)cc3)ccn2)cc(OC)c1OC [Example 52, 4-[2-(4-Fluorophenyl)pyridin-3-yl]oxy-N-(3,4,5-trimethoxy-phenyl)pyridin-2-amine] | 
5 | 0.249 µM | 0.481 µM |  | COc1cc(Nc2cc(Oc3cccnc3Cl)ccn2)cc(OC)c1OC [Example 53, 4-(2-Chloropyridin-3-yl)oxy-N-(3,4,5-trimethoxyphenyl)pyridin-2-amine] | 
6 | 0.0346 µM | 0.00929 µM |  | COc1cc(Nc2cc(Oc3ccc(C)nc3-c3cccc(Cl)c3)ccn2)cc(OC)c1OC [Example 55, 4-[2-(3-Chlorophenyl)-6-methyl-pyridin-3-yl]oxy-N-(3,4,5-trimethoxyphenyl)-pyridin-2-amine] | 
7 | 0.0795 µM | 0.00379 µM |  | COc1cc(Nc2cc(Oc3ccc(C)nc3-c3cccc(F)c3)ccn2)cc(OC)c1OC [Example 56, 4-[2-(3-Fluoro-phenyl)-6-methyl-pyridin-3-yl]oxy-N-(3,4,5-trimethoxy-phenyl)pyridin-2-amine] | 
8 |  | 0.0154 µM | 90.4 nM | COc1cc(Nc2cc(Oc3ccc(C)nc3-c3cccc(C)c3)ccn2)cc(OC)c1OC [Example 57, 4-[6-Methyl-2-(3-methylphenyl)pyridin-3-yl]oxy-N-(3,4,5-trimethoxyphenyl)-pyridin-2-amine] | 
9 | 0.135 µM | 0.0187 µM |  | COc1cccc(-c2nc(C)ccc2Oc2ccnc(Nc3cc(OC)c(OC)c(OC)c3)c2)c1 [Example 58, 4-[2-(3-Methoxy-phenyl)-6-methyl-pyridin-3-yl]oxy-N-(3,4,5-trimethoxy-phenyl)pyridin-2-amine] | 
10 | 0.348 µM |  |  | CNC(=O)c1nc(C)ccc1Oc1ccnc(Nc2ccccc2)c1 [Example 97, 3-(2-Anilinopyridin-4-yl)oxy-N,6-dimethylpyridine-2-carboxamide] | 0.9458
